Assay results published in patent publication US3992379A, “4-Alkyldioxyalkylene-5-benzylpyrimidines” (Ludwig Heumann & Co. GmbH, priority 1973, dated 1976).
Values after ≈ are worked out from the molar mass of the structure shown.

Columns and labels:
[1] = physchem; details: water
[2] = J. Med. Pharm. Chem. 5, p. 1118, Tab. 9; cited from earlier work
[3] = system: 25 coli strains; test: Anti-bacterial action test with discs impregnated with 25 μg of substance (arresting circle diameter); format: cell-based; details: mean (x) over 25 coli strains
Protocol: The test for anti-bacterial action […] was performed with discs which were each impregnated with 25 μg of the two substances A and B: […]

[4] = in vivo; details: rat, rats
[5] = Anti-bacterial action, general statement; details: in words; compared with conventional bactericide 5-nitro-8-hydroxycholine
Description: These physical properties are required in order to meet the fundamental needs for resorption required in oral adminstration.

[6] = Toxicity, general statement; details: in words; compared with conventional bactericide 5-nitro-8-hydroxycholine

Row | SMILES | solubility [1] | bactericidal activity [2] | zone of inhibition at 25 µg/disc [3] | LD50 [4] | anti-bacterial action [5] | degree of toxicity [6]
1 | COc1cc(Cc2cnc(N)nc2N)cc(OC)c1OC [2,4-diamino-5-(3',4',5'-trimethoxy-benzyl)-pyrimidine] | 0.67 mg/mL (≈ 2.31 mM) | such activity is present in the maximum degree |  |  |  | 
2 | COc1ccc(Cc2cnc(N)nc2N)cc1OC [2,4-diamino-5-(3'-4'-dimethoxybenzyl)-pyrimidine] |  | has bactericidal activity |  |  |  | 
3 | O=[N+]([O-])c1ccc(O)c2ncccc12 [substance A, 5-nitro-8-hydrocholine] |  |  | 20.7 mm | 830 mg/kg |  | 
4 | COCCOc1c(OC)cc(Cc2cnc(N)nc2N)cc1OC [substance B, 2,4-diamino-5-(3',5'-dimethoxy-4'-methyldioxyethylene-benzyl)-pyrimidine] | 8 mg/mL (≈ 23.9 mM) |  | 28.5 mm |  | improved anti-bacterial action | substantially lower degree of toxicity
